{
  "source": "patent US11866420B2",
  "about": "“Hydrochloride salt forms of a sulfonamide structured kinase inhibitor” (Aurigene Oncology Limited, priority 2018, dated 2024)",
  "key": {"[1]": {"experiment": "Water solubility", "assay_type": "physicochemical", "conditions": "physiological pH range"}, "[2]": {"experiment": "Bioavailability after oral administration", "assay_type": "in vivo"}, "[3]": {"experiment": "Long-term stability of forms 3 and 8 at different storage conditions", "assay_type": "physicochemical", "protocol": "Long-term stability of crystalline forms 3 and 8 at different storage conditions was studied. The conditions were a) 25° C./RH 60% in a closed vessel, b) 40° C./RH 75% in a closed vessel, c) 40° C./RH 75% in an open vessel and d) 25° C./RH 100% in an open vessel."}, "[4]": {"experiment": "Hygroscopicity (Dynamic Vapour Sorption)", "assay_type": "physicochemical", "conditions": "between 20%-90% RH, T=25° C., DVS mass change", "protocol": "The hygroscopicity of the crystalline forms 1, 3, 5 and 8 was evaluated using DVS-1 Dynamic Vapour Sorption equipment (Surface Measurement Systems Ltd, London, UK). The amount of 5-10 mg of each crystalline form was equilibrated at 20% RH. The mass change (%) was recorded at 30%, 40%, 50%, 60%, 70%, 80% and 90% RH at T=25° C. The equilibration condition at each point was dm/dt≤0.0003."}, "[5]": {"experiment": "Thermogravimetric analysis (TGA), onset of disproportionation", "assay_type": "physicochemical", "conditions": "for Onset temperature of disproportionation: TGA with head space mass spectroscopy, start of rapid evaporation of Cl ion", "protocol": "The TGA thermograms for the crystalline forms 1, 3, 5 and 8 were collected on TGA equipment (TA Instruments). The gases recovered during each run were analyzed by head space mass spectroscopy (Agilent GS system). The measurement allowed to register the temperature at which rapid evaporation of Cl ion (disproportionation) started.\nThe onset temperature of disproportionation for crystalline forms 1, 3, 5 and 8 was determined based on TGA measurements."}, "[6]": {"experiment": "Stability of the crystalline forms in different water activity conditions (slurry experiments)", "assay_type": "physicochemical", "conditions": "for Resulting crystalline form: HCl added; for Water activity conditions under which the crystalline form is favoured: water/methanol slurries with HCl, room temperature, 3 days", "source_text": "Stability of the crystalline forms in different water activity conditions was studied in slurry experiments where crystalline forms 1 and 3 were stirred for 3 days at room temperature in mixtures of water and methanol in the presence of HCl to maintain acidic conditions."}},
  "note": "Counter-ions that a name gives are not always drawn.",
  "data": [
    {"smiles": "Cn1cc(-c2ccc3c(c2)ncn3-c2cc(NS(=O)(=O)C3CC3)cc(-c3ccc(F)cc3F)c2)cn1", "note": "[Compound (I), N-(2′,4′-difluoro-5-(5-(1-methyl-1H-pyrazol-4-yl)-1H-benzo[d]imidazol-1-yl)-[1,1′-biphenyl]-3-yl)cyclopropanesulfonamide]", "values": [
      {"measurement": "Solubility in water", "setting": "[1]", "value": "practically insoluble"},
      {"measurement": "Bioavailability after oral administration", "setting": "[2]", "value": "very low"}
    ]},
    {"smiles": "Cn1cc(-c2ccc3c(c2)ncn3-c2cc(NS(=O)(=O)C3CC3)cc(-c3ccc(F)cc3F)c2)cn1", "note": "[Form 8, N-(2′,4′-difluoro-5-(5-(1-methyl-1H-pyrazol-4-yl)-1H-benzo[d]imidazol-1-yl)-[1,1′-biphenyl]-3-yl)cyclopropanesulfonamide hydrochloride]", "values": [
      {"measurement": "Long-term stability: stable up to", "setting": "[3]; 25° C./RH 60% closed vessel, listed as Crystalline form 8, hydrochloride", "value": "≥ 36", "unit": "months"},
      {"measurement": "Long-term stability: stable up to", "setting": "[3]; 25° C./RH 100% open vessel", "value": "≥ 2", "unit": "months"},
      {"measurement": "Long-term stability: stable up to", "setting": "[3]; 40° C./RH 75% closed vessel, listed as Crystalline form 8, hydrochloride", "value": "≥ 6", "unit": "months"},
      {"measurement": "Long-term stability: stable up to", "setting": "[3]; 40° C./RH 75% open vessel", "value": "≥ 1", "unit": "month"},
      {"measurement": "Stability at storage conditions (overall)", "setting": "[3]; all storage conditions (25° C./RH 60%, 40° C./RH 75% closed and open, 25° C./RH 100% open)", "value": "good stability"},
      {"measurement": "Hygroscopicity", "setting": "[4]; listed as form 8, hydrochloride", "value": "practically non-hygroscopic"},
      {"measurement": "Onset temperature of disproportionation", "setting": "[5]; listed as 8, hydrochloride", "value": 187, "unit": "°C"},
      {"measurement": "Thermal stability against disproportionation", "setting": "[5]; TGA, compared among crystalline forms 1, 3, 5 and 8", "value": "highest thermal stability"}
    ]},
    {"smiles": "Cn1cc(-c2ccc3c(c2)ncn3-c2cc(NS(=O)(=O)C3CC3)cc(-c3ccc(F)cc3F)c2)cn1", "note": "[Form 1, N-(2′,4′-difluoro-5-(5-(1-methyl-1H-pyrazol-4-yl)-1H-benzo[d]imidazol-1-yl)-[1,1′-biphenyl]-3-yl)cyclopropanesulfonamide hydrochloride]", "values": [
      {"measurement": "Resulting crystalline form", "setting": "[6]; 16% H2O in MeOH, water activity 0.44, slurry 3 days at room temperature", "value": "Form 3 + Form 8"},
      {"measurement": "Resulting crystalline form", "setting": "[6]; 26.6% H2O in MeOH, water activity 0.59, slurry 3 days at room temperature", "value": "Form 3 + Form 8"},
      {"measurement": "Resulting crystalline form", "setting": "[6]; 45.2% H2O in MeOH, water activity 0.75, slurry 3 days at room temperature", "value": "Form 8"},
      {"measurement": "Resulting crystalline form", "setting": "[6]; 71.5% H2O in MeOH, water activity 0.88, slurry 3 days at room temperature", "value": "Form 5"},
      {"measurement": "Hygroscopicity", "setting": "[4]; hydrochloride", "value": "particularly low hygroscopicity"},
      {"measurement": "Onset temperature of disproportionation", "setting": "[5]; listed as 1, hydrochloride", "value": 148, "unit": "°C"}
    ]},
    {"smiles": "Cn1cc(-c2ccc3c(c2)ncn3-c2cc(NS(=O)(=O)C3CC3)cc(-c3ccc(F)cc3F)c2)cn1", "note": "[Form 5, N-(2′,4′-difluoro-5-(5-(1-methyl-1H-pyrazol-4-yl)-1H-benzo[d]imidazol-1-yl)-[1,1′-biphenyl]-3-yl)cyclopropanesulfonamide hydrochloride]", "values": [
      {"measurement": "Water activity conditions under which the crystalline form is favoured", "setting": "[6]; listed as crystalline form 5, hydrochloride", "value": "about 0.9"},
      {"measurement": "Onset temperature of disproportionation", "setting": "[5]; listed as 5, hydrochloride", "value": 145, "unit": "°C"}
    ]},
    {"smiles": "Cn1cc(-c2ccc3c(c2)ncn3-c2cc(NS(=O)(=O)C3CC3)cc(-c3ccc(F)cc3F)c2)cn1", "note": "[Form 3, N-(2′,4′-difluoro-5-(5-(1-methyl-1H-pyrazol-4-yl)-1H-benzo[d]imidazol-1-yl)-[1,1′-biphenyl]-3-yl)cyclopropanesulfonamide hydrochloride]", "values": [
      {"measurement": "Resulting crystalline form", "setting": "[6]; 4.7% H2O in MeOH, water activity 0.17, slurry 3 days at room temperature", "value": "Form 3"},
      {"measurement": "Resulting crystalline form", "setting": "[6]; 10% H2O in MeOH, water activity 0.31, slurry 3 days at room temperature", "value": "Form 3"},
      {"measurement": "Resulting crystalline form", "setting": "[6]; MeOH, water activity 0, slurry stirred 3 days at room temperature", "value": "Form 3"},
      {"measurement": "Water activity conditions under which the crystalline form is favoured", "setting": "[6]; listed as crystalline form 3, hydrochloride", "value": "ambient to about 0.3"},
      {"measurement": "Long-term stability: stable up to", "setting": "[3]; 25° C./RH 60% closed vessel, listed as Crystalline form 3, hydrochloride", "value": "Stable up to 36 months"},
      {"measurement": "Long-term stability: time after which form changed", "setting": "[3]; 25° C./RH 100% open vessel", "value": 1, "unit": "week"},
      {"measurement": "Long-term stability: change of crystalline form", "setting": "[3]; 25° C./RH 100% open vessel, hydrochloride", "value": 5},
      {"measurement": "Long-term stability: change of crystalline form", "setting": "[3]; 25° C./RH 100% open vessel, listed as Crystalline form 3, hydrochloride", "value": "Change to form 5 after"},
      {"measurement": "Long-term stability: stable up to", "setting": "[3]; 40° C./RH 75% closed vessel, listed as Crystalline form 3, hydrochloride", "value": "Stable up to 12 months"},
      {"measurement": "Long-term stability: time after which form changed", "setting": "[3]; 40° C./RH 75% open vessel", "value": 1, "unit": "days"},
      {"measurement": "Long-term stability: change of crystalline form", "setting": "[3]; 40° C./RH 75% open vessel, hydrochloride", "value": "changes to form 8"},
      {"measurement": "Long-term stability: change of crystalline form", "setting": "[3]; 40° C./RH 75% open vessel, listed as Crystalline form 3, hydrochloride", "value": "Change to form 8 after"},
      {"measurement": "Onset temperature of disproportionation", "setting": "[5]; listed as 3, hydrochloride", "value": 171, "unit": "°C"}
    ]}
  ]
}
